According to PubChem BioAssay AID2060486 (Molecular Pharmacology Branch, DTP, NCI, 2025):

Tested on: IGROV1 complex spheroids (HUVEC, MSC), viability % test/control
Test: Anticancer human tumor IGROV1 cell line growth inhibition [GQUAD];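 further: spheroids exposed to compounds for 7 days before readout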;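 on viability, T/C: 100% = DMSO vehicle control viability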
Conditions: for IC50: curve of first compound; for viability, T/C: stronger effect = lower value; active means viability on the fitted dose curve at most 10% of control; inactive means the rest
Procedure, shortened: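 Tumor cells were grown as complex spheroids with HUVEC endothelial cells and mesenchymal stem cells as stroma. G-quadruplex stabilizers were combined with targeted agents over half-log dilutions from near the clinical Cmax, or from 10 microM.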

[1] = second compound 0.0316 µM, first compound 0.0316 µM
[2] = second compound 0.0316 µM, first compound 0.1 µM
[3] = second compound 0.0316 µM, first compound 0.316 µM
[4] = second compound 0.0316 µM, first compound 1 µM
[5] = second compound 0.0316 µM, first compound 3.16 µM
[6] = second compound 0.0316 µM, first compound 10 µM
[7] = second compound 0.1 µM, first compound 0.0316 µM
[8] = second compound 0.1 µM, first compound 0.1 µM
[9] = second compound 0.1 µM, first compound 0.316 µM
[10] = second compound 0.1 µM, first compound 1 µM
[11] = second compound 0.1 µM, first compound 3.16 µM
[12] = second compound 0.1 µM, first compound 10 µM
[13] = second compound 0.316 µM, first compound 0.0316 µM
[14] = second compound 0.316 µM, first compound 0.1 µM
[15] = second compound 0.316 µM, first compound 0.316 µM
[16] = second compound 0.316 µM, first compound 1 µM
[17] = second compound 0.316 µM, first compound 3.16 µM
[18] = second compound 0.316 µM, first compound 10 µM
[19] = second compound 1 µM, first compound 0.0316 µM
[20] = second compound 1 µM, first compound 0.1 µM
[21] = second compound 1 µM, first compound 0.316 µM
[22] = second compound 1 µM, first compound 1 µM
[23] = second compound 1 µM, first compound 3.16 µM
[24] = second compound 1 µM, first compound 10 µM
[25] = second compound 3.16 µM, first compound 0.0316 µM
[26] = second compound 3.16 µM, first compound 0.1 µM
[27] = second compound 3.16 µM, first compound 0.316 µM
[28] = second compound 3.16 µM, first compound 1 µM
[29] = second compound 3.16 µM, first compound 3.16 µM
[30] = second compound 3.16 µM, first compound 10 µM
[31] = second compound 10 µM, first compound 0.0316 µM
[32] = second compound 10 µM, first compound 0.1 µM
[33] = second compound 10 µM, first compound 0.316 µM
[34] = second compound 10 µM, first compound 1 µM
[35] = second compound 10 µM, first compound 3.16 µM
[36] = second compound 10 µM, first compound 10 µM

COc1cc(C2c3cc4c(cc3C(OC3OC5COC(C)OC5C(O)C3O)C3COC(=O)C23)OCO4)cc(OC)c1O (stereo unspecified) + Cc1cnc(CNC(=O)c2c(=O)c3ccc(N4CCCN(C)CC4)nc3n3c2sc2ccccc23)cn1
active: viability, T/C [5] 8.96% | viability, T/C [6] 4.09% | viability, T/C [11] 8.64% | viability, T/C [12] 5.71% | viability, T/C [17] 8.97% | viability, T/C [18] 5.79% | viability, T/C [23] 7.71% | viability, T/C [24] 6.49% | viability, T/C [25] 9.53% | viability, T/C [26] 11.8% | viability, T/C [27] 9.99% | viability, T/C [28] 9.79% | viability, T/C [29] 9.02% | viability, T/C [30] 5.67% | viability, T/C [31] 9.66% | viability, T/C [32] 11% | viability, T/C [33] 10.7% | viability, T/C [34] 9.61% | viability, T/C [35] 9.67% | viability, T/C [36] 6.31%
56.4 nM: IC50 (second compound 0.0316 µM)
inactive: viability, T/C [1] 67.3% | viability, T/C [2] 32.8% | viability, T/C [3] 16.3% | viability, T/C [4] 13.5% | viability, T/C [7] 37.6% | viability, T/C [8] 27.9% | viability, T/C [9] 16% | viability, T/C [10] 10.6% | viability, T/C [13] 25.1% | viability, T/C [14] 19% | viability, T/C [15] 14.4% | viability, T/C [16] 8.91% | viability, T/C [19] 12.8% | viability, T/C [20] 13.7% | viability, T/C [21] 13.6% | viability, T/C [22] 11%
< 31.6 nM: IC50 (second compound 0.1 µM) | IC50 (second compound 0.316 µM) | IC50 (second compound 1 µM) | IC50 (second compound 3.16 µM) | IC50 (second compound 10 µM)

Cc1cccc(N(C)C(=O)C2C(O)CCN2c2nc(C)cc(C(F)(F)F)c2C#N)c1 (stereo unspecified) + Cc1cnc(CNC(=O)c2c(=O)c3ccc(N4CCCN(C)CC4)nc3n3c2sc2ccccc23)cn1
> 10000 nM: IC50 (second compound 0.0316 µM)
< 31.6 nM: IC50 (second compound 0.1 µM) | IC50 (second compound 0.316 µM) | IC50 (second compound 1 µM) | IC50 (second compound 3.16 µM) | IC50 (second compound 10 µM)
inactive: viability, T/C [1] 66.2% | viability, T/C [2] 68% | viability, T/C [3] 65.6% | viability, T/C [4] 42% | viability, T/C [5] 76.5% | viability, T/C [6] 63% | viability, T/C [7] 45.2% | viability, T/C [8] 38.2% | viability, T/C [9] 38.2% | viability, T/C [10] 31.6% | viability, T/C [11] 39.6% | viability, T/C [12] 34.5% | viability, T/C [13] 24.8% | viability, T/C [14] 23.1% | viability, T/C [15] 20.6% | viability, T/C [16] 26.8% | viability, T/C [17] 29.3% | viability, T/C [18] 17.3% | viability, T/C [19] 12.8% | viability, T/C [20] 9.76% | viability, T/C [21] 20.4% | viability, T/C [22] 14.9% | viability, T/C [23] 21.1% | viability, T/C [24] 17.1% | viability, T/C [25] 11.1% | viability, T/C [26] 11.2% | viability, T/C [27] 13.9% | viability, T/C [28] 12.8% | viability, T/C [29] 13.4% | viability, T/C [30] 10.1% | viability, T/C [31] 8.57% | viability, T/C [32] 9.75% | viability, T/C [33] 7.75% | viability, T/C [34] 10.5% | viability, T/C [35] 14.8% | viability, T/C [36] 11.7%

Cn1ncnc1[C@H]1c2n[nH]c(=O)c3cc(F)cc(c23)N[C@@H]1c1ccc(F)cc1 + Cc1cnc(CNC(=O)c2c(=O)c3ccc(N4CCCN(C)CC4)nc3n3c2sc2ccccc23)cn1
active: viability, T/C (second compound 3.16 µM, first compound 0.00316 µM) 8.42% | viability, T/C (second compound 3.16 µM, first compound 0.00999 µM) 10.4% | viability, T/C [25] 13.2% | viability, T/C (second compound 3.16 µM, first compound 0.0999 µM) 9.17% | viability, T/C [27] 7.53% | viability, T/C (second compound 10 µM, first compound 0.000999 µM) 8.16% | viability, T/C (second compound 10 µM, first compound 0.00316 µM) 10% | viability, T/C (second compound 10 µM, first compound 0.00999 µM) 10.5% | viability, T/C [31] 9.96% | viability, T/C (second compound 10 µM, first compound 0.0999 µM) 10.5% | viability, T/C [33] 8.19%
< 0.999 nM: IC50 (second compound 0.1 µM) | IC50 (second compound 0.316 µM) | IC50 (second compound 1 µM) | IC50 (second compound 3.16 µM) | IC50 (second compound 10 µM)
21.9 nM: IC50 (second compound 0.0316 µM)
inactive: viability, T/C (second compound 0.0316 µM, first compound 0.000999 µM) 73.9% | viability, T/C (second compound 0.0316 µM, first compound 0.00316 µM) 67.1% | viability, T/C (second compound 0.0316 µM, first compound 0.00999 µM) 60% | viability, T/C [1] 41% | viability, T/C (second compound 0.0316 µM, first compound 0.0999 µM) 38.5% | viability, T/C [3] 19.3% | viability, T/C (second compound 0.1 µM, first compound 0.000999 µM) 44.2% | viability, T/C (second compound 0.1 µM, first compound 0.00316 µM) 34.8% | viability, T/C (second compound 0.1 µM, first compound 0.00999 µM) 30.9% | viability, T/C [7] 21.6% | viability, T/C (second compound 0.1 µM, first compound 0.0999 µM) 21.6% | viability, T/C [9] 19% | viability, T/C (second compound 0.316 µM, first compound 0.000999 µM) 29.5% | viability, T/C (second compound 0.316 µM, first compound 0.00316 µM) 18.9% | viability, T/C (second compound 0.316 µM, first compound 0.00999 µM) 20.2% | viability, T/C [13] 16.8% | viability, T/C (second compound 0.316 µM, first compound 0.0999 µM) 16.5% | viability, T/C [15] 12.4% | viability, T/C (second compound 1 µM, first compound 0.000999 µM) 17.3% | viability, T/C (second compound 1 µM, first compound 0.00316 µM) 11% | viability, T/C (second compound 1 µM, first compound 0.00999 µM) 14.8% | viability, T/C [19] 14% | viability, T/C (second compound 1 µM, first compound 0.0999 µM) 12.7% | viability, T/C [21] 12.1% | viability, T/C (second compound 3.16 µM, first compound 0.000999 µM) 11.3%
